Active and inactive are the calls of the source. The rule behind the calls is not given here.
test system: SK-N-MC; assay: cells; format: ADME, cell-based; settings: Homo sapiens, 72 h

| Compound | IC50 |
| --- | --- |
| S=C(N/N=C/c1ccc2ccccc2n1)NC1CCN(Cc2ccccc2)CC1 | 17.7 µM |
| Oc1ccc(/C=N/NC(=S)NC2CCN(Cc3ccccc3)CC2)c(O)c1O | 79.1 µM |
| CN(C)C(=S)NN=C(c1ccccn1)c1ccccn1 | 0.013 µM |
| COc1cc2c(cc1OC)C(=O)C(CC1CCN(Cc3ccccc3)CC1)C2 (stereo unspecified) [DONEPEZIL] | > 100 µM |
| Oc1cccc2ccc(/C=N/NC(=S)NC3CCN(Cc4ccccc4)CC3)nc12 | 36.1 µM |
| S=C(N/N=C/c1ccccn1)NC1CCN(Cc2ccccc2)CC1 | 4.23 µM |
| Oc1ccc2ccccc2c1/C=N/NC(=S)NC1CCN(Cc2ccccc2)CC1 | 8.86 µM |
| Oc1ccccc1/C=N/NC(=S)NC1CCN(Cc2ccccc2)CC1 | 34.4 µM |
| CC(=O)N(O)CCCCCNC(=O)CCC(=O)N(O)CCCCCNC(=O)CCC(=O)N(O)CCCCCN [DEFEROXAMINE] | 16.8 µM |
| Oc1cccc(/C=N/NC(=S)NC2CCN(Cc3ccccc3)CC2)c1O | 16.9 µM |
| Cc1ncc(CO)c(/C=N/NC(=S)NC2CCN(Cc3ccccc3)CC2)c1O | > 100 µM |

target: Acetylcholinesterase (Electrophorus electricus, UniProt O42275); assay: Inhibition of electric eel AChE using acetylthiocholine iodide as substrate preincubated for 15 mins followed by substrate addition measured for 5 mins by UV spectrophotometric analysis; settings: not given
Sequence (O42275 whole entry): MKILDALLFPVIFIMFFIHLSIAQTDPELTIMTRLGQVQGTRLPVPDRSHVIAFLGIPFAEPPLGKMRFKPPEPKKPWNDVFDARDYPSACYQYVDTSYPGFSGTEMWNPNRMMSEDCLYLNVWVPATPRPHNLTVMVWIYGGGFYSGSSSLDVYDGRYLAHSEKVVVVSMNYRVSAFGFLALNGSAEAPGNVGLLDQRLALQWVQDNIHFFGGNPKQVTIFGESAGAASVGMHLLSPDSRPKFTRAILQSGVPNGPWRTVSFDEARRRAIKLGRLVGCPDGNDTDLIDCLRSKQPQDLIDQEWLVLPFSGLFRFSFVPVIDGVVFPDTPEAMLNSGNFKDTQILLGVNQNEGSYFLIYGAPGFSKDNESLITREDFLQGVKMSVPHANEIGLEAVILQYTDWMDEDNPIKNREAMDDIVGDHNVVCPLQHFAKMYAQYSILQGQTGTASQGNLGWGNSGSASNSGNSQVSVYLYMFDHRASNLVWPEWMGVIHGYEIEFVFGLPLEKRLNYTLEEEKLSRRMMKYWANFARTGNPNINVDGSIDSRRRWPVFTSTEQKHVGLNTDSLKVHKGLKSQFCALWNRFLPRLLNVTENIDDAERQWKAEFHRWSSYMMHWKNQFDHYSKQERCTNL

| Compound | IC50 |
| --- | --- |
| S=C(N/N=C/c1ccc2ccccc2n1)NC1CCN(Cc2ccccc2)CC1 | 1020 to 22600 nM |
| Oc1ccc(/C=N/NC(=S)NC2CCN(Cc3ccccc3)CC2)c(O)c1O | 1020 to 22600 nM |
| Oc1cccc2ccc(/C=N/NC(=S)NC3CCN(Cc4ccccc4)CC3)nc12 | 1020 to 22600 nM |
| S=C(N/N=C/c1ccccn1)NC1CCN(Cc2ccccc2)CC1 | 1020 to 22600 nM |
| Oc1ccc2ccccc2c1/C=N/NC(=S)NC1CCN(Cc2ccccc2)CC1 | 1230 nM |
| Oc1ccccc1/C=N/NC(=S)NC1CCN(Cc2ccccc2)CC1 | 1020 to 22600 nM |
| Oc1cccc(/C=N/NC(=S)NC2CCN(Cc3ccccc3)CC2)c1O | 1020 nM |
| Cc1ncc(CO)c(/C=N/NC(=S)NC2CCN(Cc3ccccc3)CC2)c1O | 4930 nM |

test system: SK-N-MC; assay: Induction of autophagy in human SK-N-MC cells assessed as decrease in p62 level at 25 uM after 24 hrs by Western blot analysis; format: functional, cell-based; settings: not given

| Compound | Activity |
| --- | --- |
| S=C(N/N=C/c1ccc2ccccc2n1)NC1CCN(Cc2ccccc2)CC1 | inactive |
| Oc1ccc(/C=N/NC(=S)NC2CCN(Cc3ccccc3)CC2)c(O)c1O | inactive |
| CN(C)C(=S)NN=C(c1ccccn1)c1ccccn1 | Active |
| Oc1cccc2ccc(/C=N/NC(=S)NC3CCN(Cc4ccccc4)CC3)nc12 | inactive |
| S=C(N/N=C/c1ccccn1)NC1CCN(Cc2ccccc2)CC1 | inactive |
| Oc1ccc2ccccc2c1/C=N/NC(=S)NC1CCN(Cc2ccccc2)CC1 | Active |
| Oc1ccccc1/C=N/NC(=S)NC1CCN(Cc2ccccc2)CC1 | Active |
| Oc1cccc(/C=N/NC(=S)NC2CCN(Cc3ccccc3)CC2)c1O | inactive |
| Cc1ncc(CO)c(/C=N/NC(=S)NC2CCN(Cc3ccccc3)CC2)c1O | inactive |

test system: SK-N-MC; assay: Induction of autophagy in human SK-N-MC cells assessed as increase in LC3 accumulation at 25 uM after 24 hrs in presence of autophagy inhibitor Baf1 by Western blot analysis; format: functional, cell-based; settings: not given

| Compound | Activity |
| --- | --- |
| S=C(N/N=C/c1ccc2ccccc2n1)NC1CCN(Cc2ccccc2)CC1 | inactive |
| Oc1ccc(/C=N/NC(=S)NC2CCN(Cc3ccccc3)CC2)c(O)c1O | Active |
| CN(C)C(=S)NN=C(c1ccccn1)c1ccccn1 | Active |
| Oc1cccc2ccc(/C=N/NC(=S)NC3CCN(Cc4ccccc4)CC3)nc12 | Active |
| S=C(N/N=C/c1ccccn1)NC1CCN(Cc2ccccc2)CC1 | Active |
| Oc1ccc2ccccc2c1/C=N/NC(=S)NC1CCN(Cc2ccccc2)CC1 | inactive |
| Oc1ccccc1/C=N/NC(=S)NC1CCN(Cc2ccccc2)CC1 | inactive |
| Oc1cccc(/C=N/NC(=S)NC2CCN(Cc3ccccc3)CC2)c1O | inactive |
| Cc1ncc(CO)c(/C=N/NC(=S)NC2CCN(Cc3ccccc3)CC2)c1O | Active |

test system: not listed separately; assay: Metal chelation activity assessed as 1:1 compound to Cu2+L complex formation in DMF:H2O (7:3) solution by EPR spectrscopy; settings: not given

| Compound | Activity |
| --- | --- |
| S=C(N/N=C/c1ccc2ccccc2n1)NC1CCN(Cc2ccccc2)CC1 | Active |
| Oc1ccc(/C=N/NC(=S)NC2CCN(Cc3ccccc3)CC2)c(O)c1O | Active |
| Oc1cccc2ccc(/C=N/NC(=S)NC3CCN(Cc4ccccc4)CC3)nc12 | Active |
| S=C(N/N=C/c1ccccn1)NC1CCN(Cc2ccccc2)CC1 | Active |
| Oc1ccc2ccccc2c1/C=N/NC(=S)NC1CCN(Cc2ccccc2)CC1 | Active |
| Oc1ccccc1/C=N/NC(=S)NC1CCN(Cc2ccccc2)CC1 | Active |
| Oc1cccc(/C=N/NC(=S)NC2CCN(Cc3ccccc3)CC2)c1O | Active |
| Cc1ncc(CO)c(/C=N/NC(=S)NC2CCN(Cc3ccccc3)CC2)c1O | Active |

test system: not listed separately; assay: Metal chelation activity assessed as 1:1 compound to Cu2+L2 complex formation in DMF:H2O (7:3) solution by EPR spectrscopy; settings: not given

| Compound | Activity |
| --- | --- |
| Oc1ccc2ccccc2c1/C=N/NC(=S)NC1CCN(Cc2ccccc2)CC1 | inactive |
| Oc1ccccc1/C=N/NC(=S)NC1CCN(Cc2ccccc2)CC1 | inactive |
| Cc1ncc(CO)c(/C=N/NC(=S)NC2CCN(Cc3ccccc3)CC2)c1O | inactive |

test system: not listed separately; assay: Metal chelation activity assessed as 1:1 compound to Cu2+L complex formation in DMF:H2O (7:3) solution by cyclic voltametry; settings: not given

| Compound | Activity |
| --- | --- |
| S=C(N/N=C/c1ccc2ccccc2n1)NC1CCN(Cc2ccccc2)CC1 | Active |
| Oc1cccc2ccc(/C=N/NC(=S)NC3CCN(Cc4ccccc4)CC3)nc12 | Active |
| S=C(N/N=C/c1ccccn1)NC1CCN(Cc2ccccc2)CC1 | Active |
| Oc1ccc2ccccc2c1/C=N/NC(=S)NC1CCN(Cc2ccccc2)CC1 | Active |
| Oc1ccccc1/C=N/NC(=S)NC1CCN(Cc2ccccc2)CC1 | Active |
| Cc1ncc(CO)c(/C=N/NC(=S)NC2CCN(Cc3ccccc3)CC2)c1O | Active |

test system: not listed separately; assay: Metal chelation activity assessed as 1:2 Fe3+:L complex formation in DMF:H2O (7:3) solution by EPR spectrscopy; settings: not given

| Compound | Activity |
| --- | --- |
| S=C(N/N=C/c1ccc2ccccc2n1)NC1CCN(Cc2ccccc2)CC1 | Active |
| S=C(N/N=C/c1ccccn1)NC1CCN(Cc2ccccc2)CC1 | Active |
| Oc1ccc2ccccc2c1/C=N/NC(=S)NC1CCN(Cc2ccccc2)CC1 | Active |
| Oc1ccccc1/C=N/NC(=S)NC1CCN(Cc2ccccc2)CC1 | Active |
| Cc1ncc(CO)c(/C=N/NC(=S)NC2CCN(Cc3ccccc3)CC2)c1O | Active |

test system: not listed separately; assay: Metal chelation activity assessed as 1:2 Fe2+:L complex formation in DMF:H2O (7:3) solution by EPR spectrscopy; settings: not given

| Compound | Activity |
| --- | --- |
| Oc1ccc(/C=N/NC(=S)NC2CCN(Cc3ccccc3)CC2)c(O)c1O | Active |

test system: not listed separately; assay: Metal chelation activity assessed as 1:2 Fe3+:L complex formation in DMF:H2O (7:3) solution by cyclic voltametry; settings: not given

| Compound | Activity |
| --- | --- |
| S=C(N/N=C/c1ccc2ccccc2n1)NC1CCN(Cc2ccccc2)CC1 | Active |
| Oc1cccc2ccc(/C=N/NC(=S)NC3CCN(Cc4ccccc4)CC3)nc12 | Active |
| S=C(N/N=C/c1ccccn1)NC1CCN(Cc2ccccc2)CC1 | Active |
| Oc1ccc2ccccc2c1/C=N/NC(=S)NC1CCN(Cc2ccccc2)CC1 | Active |
| Oc1ccccc1/C=N/NC(=S)NC1CCN(Cc2ccccc2)CC1 | Active |
| Cc1ncc(CO)c(/C=N/NC(=S)NC2CCN(Cc3ccccc3)CC2)c1O | Active |

test system: SK-N-MC; assay: Binding affinity to 59Fe2+ in human SK-N-MC cells labeled with 59Fe2-transferrin assessed as Fe release at 25 uM after 3 hrs by gamma scintillation counting method relative to DFO; format: cell-based; settings: not given

| Compound | Activity |
| --- | --- |
| Oc1ccc(/C=N/NC(=S)NC2CCN(Cc3ccccc3)CC2)c(O)c1O | 14% |
| Oc1cccc2ccc(/C=N/NC(=S)NC3CCN(Cc4ccccc4)CC3)nc12 | 17% |
| S=C(N/N=C/c1ccccn1)NC1CCN(Cc2ccccc2)CC1 | 18% |
| Oc1ccc2ccccc2c1/C=N/NC(=S)NC1CCN(Cc2ccccc2)CC1 | 16% |
| Oc1ccccc1/C=N/NC(=S)NC1CCN(Cc2ccccc2)CC1 | 28% |
| Oc1cccc(/C=N/NC(=S)NC2CCN(Cc3ccccc3)CC2)c1O | 29% |
| Cc1ncc(CO)c(/C=N/NC(=S)NC2CCN(Cc3ccccc3)CC2)c1O | 31% |

test system: SK-N-MC; assay: Induction of autophagy in human SK-N-MC cells assessed as increase in LC3 accumulation at 25 uM after 24 hrs in absence of autophagy inhibitor Baf1 by Western blot analysis; format: functional, cell-based; settings: not given

| Compound | Activity |
| --- | --- |
| Oc1cccc2ccc(/C=N/NC(=S)NC3CCN(Cc4ccccc4)CC3)nc12 | Active |
| Oc1ccc2ccccc2c1/C=N/NC(=S)NC1CCN(Cc2ccccc2)CC1 | Active |
| Oc1cccc(/C=N/NC(=S)NC2CCN(Cc3ccccc3)CC2)c1O | Active |

test system: SK-N-MC; assay: cells; settings: Homo sapiens, read-out: Activity
Description: Neuroprotective activity against H2O2-induced cell death in human SK-N-MC cells assessed as cell viability at 10 uM preincubated for 2 hrs followed by H2O2 addition and measured after 24 hrs by MTT assay

| Compound | viability at 10 µM |
| --- | --- |
| S=C(N/N=C/c1ccc2ccccc2n1)NC1CCN(Cc2ccccc2)CC1 | 66 to 87% |
| Oc1ccc(/C=N/NC(=S)NC2CCN(Cc3ccccc3)CC2)c(O)c1O | 66 to 87% |
| COc1cc2c(cc1OC)C(=O)C(CC1CCN(Cc3ccccc3)CC1)C2 (stereo unspecified) [DONEPEZIL] | 74% |
| Oc1cccc2ccc(/C=N/NC(=S)NC3CCN(Cc4ccccc4)CC3)nc12 | 66 to 87% |
| S=C(N/N=C/c1ccccn1)NC1CCN(Cc2ccccc2)CC1 | 66 to 87% |
| Oc1ccccc1/C=N/NC(=S)NC1CCN(Cc2ccccc2)CC1 | 66 to 87% |
| CC(=O)N(O)CCCCCNC(=O)CCC(=O)N(O)CCCCCNC(=O)CCC(=O)N(O)CCCCCN [DEFEROXAMINE] | 89% |
| Oc1cccc(/C=N/NC(=S)NC2CCN(Cc3ccccc3)CC2)c1O | 66 to 87% |
| Cc1ncc(CO)c(/C=N/NC(=S)NC2CCN(Cc3ccccc3)CC2)c1O | 66 to 87% |

test system: SK-N-MC; assay: not given; settings: Homo sapiens, 10 uM

| Compound | Activity |
| --- | --- |
| Oc1ccc2ccccc2c1/C=N/NC(=S)NC1CCN(Cc2ccccc2)CC1 | inactive |

Reference: ChEMBL document CHEMBL4130407, “A novel class of thiosemicarbazones show multi-functional activity for the treatment of Alzheimer's disease” (Eur J Med Chem, 2017)
